Results taken from ChEMBL document CHEMBL5537193, “Multitargeting HDAC Inhibitors Containing a RAS/RAF Protein Interfering Unit” (J Med Chem, 2024).
pIC50: −log10 of the molar value. The source made the active and inactive calls. No cut-off for these calls is given here.

What was measured:
[1] = tested on: SGC-7901; assay: cells; details: Homo sapiens, SGC-7901, 72 h
Description: Cytotoxicity against human SGC-7901 cells assessed as inhibition of cell growth incubated for 72 hrs by MTT assay

[2] = tested on: PANC-1; assay: Induction of apoptosis in human PANC-1 cells assessed as increase in cleaved caspase-3 expression level at 2 uM incubated for 24 hrs by Western blot analysis; assay type: functional, cell-based
[3] = biological target: Histone deacetylase 7 (Homo sapiens, UniProt Q8WUI4); assay: Inhibition of HDAC7 (unknown origin)
[4] = tested on: PANC-1; assay: Induction of apoptosis in human PANC-1 cells assessed as increase in Bax expression at 2 uM incubated for 24 hrs by Western blot analysis; assay type: functional, cell-based
[5] = biological target: Protein deacetylase HDAC6 (Homo sapiens, UniProt Q9UBN7); assay: Inhibition of HDAC6 (unknown origin)
[6] = biological target: Histone deacetylase 4 (Homo sapiens, UniProt P56524); assay: Inhibition of HDAC4 (unknown origin)
[7] = biological target: Histone deacetylase 3 (Homo sapiens, UniProt O15379); assay: Inhibition of HDAC3 (unknown origin)
[8] = biological target: Histone deacetylase 5 (Homo sapiens, UniProt Q9UQL6); assay: Inhibition of HDAC5 (unknown origin)
[9] = tested on: MCF7; assay: cells; details: Homo sapiens, MCF7, 72 h
Description: Cytotoxicity against human MCF7 cells assessed as inhibition of cell growth incubated for 72 hrs by MTT assay

[10] = tested on: PANC-1; assay: cells; details: Homo sapiens, PANC-1, 72 h
Description: Cytotoxicity against human PANC-1 cells assessed as inhibition of cell growth incubated for 72 hrs by MTT assay

[11] = tested on: HT-29; assay: cells; details: Homo sapiens, HT-29, 72 h
Description: Cytotoxicity against human HT-29 cells assessed as inhibition of cell growth incubated for 72 hrs by MTT assay

[12] = biological target: Histone deacetylase 8 (Homo sapiens, UniProt Q9BY41); assay: Inhibition of HDAC8 (unknown origin)
[13] = biological target: Histone deacetylase 11 (Homo sapiens, UniProt Q96DB2); assay: Inhibition of HDAC11 (unknown origin)
[14] = tested on: A-431; assay: cells; details: Homo sapiens, A-431, 72 h
Description: Cytotoxicity against human A-431 cells assessed as inhibition of cell growth incubated for 72 hrs by MTT assay

[15] = biological target: Histone deacetylase 1 (Homo sapiens, UniProt Q13547); assay: Inhibition of HDAC1 (unknown origin)
[16] = tested on: A549; assay: cells; details: Homo sapiens, A549, 72 h
Description: Cytotoxicity against human A549 cells assessed as inhibition of cell growth incubated for 72 hrs by MTT assay

[17] = tested on: PANC-1; assay: Induction of apoptosis in human PANC-1 cells assessed as increase in cleaved caspase-9 expression level at 2 uM incubated for 24 hrs by Western blot analysis; assay type: functional, cell-based
[18] = tested on: PANC-1; assay: Cell cycle arrest in human PANC-1 cells assessed as accumulation of cells at GO-G1 phase at 2 uM incubated for 24 hrs by PI/RNase staining based flow cytometric analysis; assay type: functional
[19] = tested on: HepG2; assay: cells; details: Homo sapiens, HepG2, 72 h
Description: Cytotoxicity against human HepG2 cells assessed as inhibition of cell growth incubated for 72 hrs by MTT assay

[20] = biological target: Histone deacetylase 2 (Homo sapiens, UniProt Q92769); assay: Inhibition of HDAC2 (unknown origin)
[21] = tested on: MV4-11; assay: cells; details: Homo sapiens, MV4-11, 72 h
Description: Cytotoxicity against human MV4-11 cells assessed as inhibition of cell growth incubated for 72 hrs by MTT assay

[22] = tested on: PANC-1; assay: Induction of apoptosis in human PANC-1 cells assessed as increase in cleaved PARP expression level at 2 uM incubated for 24 hrs by Western blot analysis; assay type: functional, cell-based
[23] = tested on: PANC-1; assay: Induction of apoptosis in human PANC-1 cells assessed as apoptotic cells at 2 uM incubated for 24 hrs by flow cytometric analysis relative to control; assay type: functional
[24] = tested on: NCI-H1975; assay: cells; details: Homo sapiens, NCI-H1975, 72 h
Description: Cytotoxicity against human NCI-H1975 cells assessed as inhibition of cell growth incubated for 72 hrs by MTT assay

[25] = tested on: PANC-1; assay: Induction of apoptosis in human PANC-1 cells assessed as increase in Cytochrome C expression level at 2 uM incubated for 24 hrs by Western blot analysis; assay type: functional, cell-based
[26] = tested on: HT-29; assay: Antitumor activity against human HT-29 cells xenografted in BALB/c nude mouse assessed as tumor growth inhibition at 7.5 mg/kg, ip administered once a day for 24 days relative to control; assay type: functional; details: HT-29, 576 h, time 24 day, read-out: TGI
[27] = tested on: HT-29; assay: Antitumor activity against human HT-29 cells xenografted in BALB/c nude mouse assessed as tumor growth inhibition at 7.5 mg/kg, ip administered once a day for 24 days in presence of SAHA relative to control; assay type: functional; details: HT-29, 576 h, time 24 day, read-out: TGI
[28] = tested on: K562; assay: cells; details: Homo sapiens, K562, 72 h
Description: Cytotoxicity against human K562 cells assessed as inhibition of cell growth incubated for 72 hrs by MTT assay

[29] = biological target: Histone deacetylase 9 (Homo sapiens, UniProt Q9UKV0); assay: Inhibition of HDAC9 (unknown origin)
[30] = tested on: L02; assay: cells; details: Homo sapiens, L02, 72 h
Description: Cytotoxicity against human L02 cells assessed as inhibition of cell growth incubated for 72 hrs by MTT assay

[31] = biological target: Polyamine deacetylase HDAC10 (Homo sapiens, UniProt Q969S8); assay: Inhibition of HDAC10 (unknown origin)
[32] = tested on: HT-29; assay: Induction of apoptosis in human HT-29 cells assessed as apoptotic ratio at 2 uM incubated for 24 hrs by flow cytometric analysis; assay type: functional

Sequence of Histone deacetylase 1 (Q13547 whole entry): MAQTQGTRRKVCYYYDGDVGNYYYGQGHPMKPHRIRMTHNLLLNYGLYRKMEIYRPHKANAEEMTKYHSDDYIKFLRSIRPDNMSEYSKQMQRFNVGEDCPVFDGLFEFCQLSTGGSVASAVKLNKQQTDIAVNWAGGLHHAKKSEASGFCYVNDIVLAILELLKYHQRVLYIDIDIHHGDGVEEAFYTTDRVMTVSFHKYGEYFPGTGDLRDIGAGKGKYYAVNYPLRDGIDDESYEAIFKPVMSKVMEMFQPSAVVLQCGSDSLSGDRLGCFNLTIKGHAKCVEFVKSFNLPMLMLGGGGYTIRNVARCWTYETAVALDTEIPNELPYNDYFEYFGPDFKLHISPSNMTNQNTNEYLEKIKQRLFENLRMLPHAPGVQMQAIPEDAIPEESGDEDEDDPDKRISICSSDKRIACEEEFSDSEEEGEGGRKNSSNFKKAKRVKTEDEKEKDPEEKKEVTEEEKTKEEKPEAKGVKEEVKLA
Sequence of Histone deacetylase 5 (Q9UQL6 whole entry): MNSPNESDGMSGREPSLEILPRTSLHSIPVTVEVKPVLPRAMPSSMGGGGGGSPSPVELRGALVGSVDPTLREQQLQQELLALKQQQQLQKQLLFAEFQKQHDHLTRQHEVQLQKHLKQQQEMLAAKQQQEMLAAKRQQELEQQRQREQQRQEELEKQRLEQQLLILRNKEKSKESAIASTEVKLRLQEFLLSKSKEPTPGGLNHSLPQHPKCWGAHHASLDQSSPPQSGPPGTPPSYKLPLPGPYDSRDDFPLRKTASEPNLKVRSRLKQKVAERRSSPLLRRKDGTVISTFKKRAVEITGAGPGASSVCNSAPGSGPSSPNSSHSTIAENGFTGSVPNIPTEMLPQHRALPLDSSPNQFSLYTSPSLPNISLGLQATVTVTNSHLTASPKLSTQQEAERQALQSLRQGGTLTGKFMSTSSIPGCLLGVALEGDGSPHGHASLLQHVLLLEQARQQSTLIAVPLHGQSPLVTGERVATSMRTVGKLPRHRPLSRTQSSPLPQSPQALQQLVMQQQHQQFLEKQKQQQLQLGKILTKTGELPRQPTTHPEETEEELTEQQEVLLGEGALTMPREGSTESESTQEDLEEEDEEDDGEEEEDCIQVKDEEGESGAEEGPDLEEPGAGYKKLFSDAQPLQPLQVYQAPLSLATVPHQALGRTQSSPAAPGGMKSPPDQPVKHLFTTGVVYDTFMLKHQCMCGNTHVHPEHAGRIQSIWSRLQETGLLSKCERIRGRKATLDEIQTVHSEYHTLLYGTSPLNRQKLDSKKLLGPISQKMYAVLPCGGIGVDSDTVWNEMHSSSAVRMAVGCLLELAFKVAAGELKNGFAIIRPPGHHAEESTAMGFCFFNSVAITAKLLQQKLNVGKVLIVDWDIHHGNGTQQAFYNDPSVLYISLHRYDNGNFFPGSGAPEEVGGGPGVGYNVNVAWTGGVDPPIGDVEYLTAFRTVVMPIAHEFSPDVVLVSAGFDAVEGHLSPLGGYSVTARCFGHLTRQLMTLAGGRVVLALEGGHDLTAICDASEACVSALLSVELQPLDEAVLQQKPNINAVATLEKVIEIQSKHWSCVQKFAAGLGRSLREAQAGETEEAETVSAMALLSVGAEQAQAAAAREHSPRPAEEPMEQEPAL
Sequence of Histone deacetylase 8 (Q9BY41 whole entry): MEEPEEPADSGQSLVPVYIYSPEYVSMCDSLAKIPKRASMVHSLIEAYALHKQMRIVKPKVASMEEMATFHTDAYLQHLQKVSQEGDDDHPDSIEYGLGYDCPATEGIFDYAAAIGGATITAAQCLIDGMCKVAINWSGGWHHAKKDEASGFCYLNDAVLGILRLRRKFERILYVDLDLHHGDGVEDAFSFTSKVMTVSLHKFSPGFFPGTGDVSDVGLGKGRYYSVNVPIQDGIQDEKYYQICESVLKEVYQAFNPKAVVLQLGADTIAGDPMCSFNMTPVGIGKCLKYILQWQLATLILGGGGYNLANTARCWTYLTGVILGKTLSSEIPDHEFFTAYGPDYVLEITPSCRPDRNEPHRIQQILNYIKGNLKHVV
Sequence of Protein deacetylase HDAC6 (Q9UBN7 whole entry): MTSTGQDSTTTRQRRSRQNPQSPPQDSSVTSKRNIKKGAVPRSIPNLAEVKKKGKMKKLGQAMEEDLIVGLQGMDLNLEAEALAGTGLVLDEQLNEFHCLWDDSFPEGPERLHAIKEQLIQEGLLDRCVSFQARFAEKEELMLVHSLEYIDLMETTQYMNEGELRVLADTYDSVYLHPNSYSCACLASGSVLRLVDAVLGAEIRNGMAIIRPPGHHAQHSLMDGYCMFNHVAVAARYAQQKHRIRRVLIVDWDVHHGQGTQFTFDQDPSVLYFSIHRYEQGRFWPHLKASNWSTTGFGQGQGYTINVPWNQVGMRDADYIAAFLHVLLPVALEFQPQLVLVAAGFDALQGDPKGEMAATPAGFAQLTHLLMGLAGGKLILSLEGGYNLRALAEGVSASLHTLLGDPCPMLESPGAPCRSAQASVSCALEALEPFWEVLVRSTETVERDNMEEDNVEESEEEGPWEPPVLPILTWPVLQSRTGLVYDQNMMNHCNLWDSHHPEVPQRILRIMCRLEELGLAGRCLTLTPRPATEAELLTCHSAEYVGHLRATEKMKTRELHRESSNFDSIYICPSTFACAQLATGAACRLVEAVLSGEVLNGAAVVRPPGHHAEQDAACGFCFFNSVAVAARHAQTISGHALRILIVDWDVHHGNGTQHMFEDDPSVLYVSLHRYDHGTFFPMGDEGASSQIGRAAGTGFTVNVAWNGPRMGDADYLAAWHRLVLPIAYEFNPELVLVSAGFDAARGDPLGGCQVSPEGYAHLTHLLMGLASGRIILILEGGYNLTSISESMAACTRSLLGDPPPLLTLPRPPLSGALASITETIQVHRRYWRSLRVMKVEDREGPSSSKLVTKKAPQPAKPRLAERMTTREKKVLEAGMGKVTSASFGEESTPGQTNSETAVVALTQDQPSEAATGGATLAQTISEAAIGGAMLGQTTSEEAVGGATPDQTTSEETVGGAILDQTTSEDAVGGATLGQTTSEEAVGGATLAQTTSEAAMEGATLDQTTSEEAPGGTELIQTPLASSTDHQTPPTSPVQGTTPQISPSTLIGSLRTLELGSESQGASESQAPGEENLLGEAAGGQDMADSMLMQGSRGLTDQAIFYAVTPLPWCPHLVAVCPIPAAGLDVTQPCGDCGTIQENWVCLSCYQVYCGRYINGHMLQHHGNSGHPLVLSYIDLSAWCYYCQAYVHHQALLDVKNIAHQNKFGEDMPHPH
Sequence of Histone deacetylase 9 (Q9UKV0 whole entry): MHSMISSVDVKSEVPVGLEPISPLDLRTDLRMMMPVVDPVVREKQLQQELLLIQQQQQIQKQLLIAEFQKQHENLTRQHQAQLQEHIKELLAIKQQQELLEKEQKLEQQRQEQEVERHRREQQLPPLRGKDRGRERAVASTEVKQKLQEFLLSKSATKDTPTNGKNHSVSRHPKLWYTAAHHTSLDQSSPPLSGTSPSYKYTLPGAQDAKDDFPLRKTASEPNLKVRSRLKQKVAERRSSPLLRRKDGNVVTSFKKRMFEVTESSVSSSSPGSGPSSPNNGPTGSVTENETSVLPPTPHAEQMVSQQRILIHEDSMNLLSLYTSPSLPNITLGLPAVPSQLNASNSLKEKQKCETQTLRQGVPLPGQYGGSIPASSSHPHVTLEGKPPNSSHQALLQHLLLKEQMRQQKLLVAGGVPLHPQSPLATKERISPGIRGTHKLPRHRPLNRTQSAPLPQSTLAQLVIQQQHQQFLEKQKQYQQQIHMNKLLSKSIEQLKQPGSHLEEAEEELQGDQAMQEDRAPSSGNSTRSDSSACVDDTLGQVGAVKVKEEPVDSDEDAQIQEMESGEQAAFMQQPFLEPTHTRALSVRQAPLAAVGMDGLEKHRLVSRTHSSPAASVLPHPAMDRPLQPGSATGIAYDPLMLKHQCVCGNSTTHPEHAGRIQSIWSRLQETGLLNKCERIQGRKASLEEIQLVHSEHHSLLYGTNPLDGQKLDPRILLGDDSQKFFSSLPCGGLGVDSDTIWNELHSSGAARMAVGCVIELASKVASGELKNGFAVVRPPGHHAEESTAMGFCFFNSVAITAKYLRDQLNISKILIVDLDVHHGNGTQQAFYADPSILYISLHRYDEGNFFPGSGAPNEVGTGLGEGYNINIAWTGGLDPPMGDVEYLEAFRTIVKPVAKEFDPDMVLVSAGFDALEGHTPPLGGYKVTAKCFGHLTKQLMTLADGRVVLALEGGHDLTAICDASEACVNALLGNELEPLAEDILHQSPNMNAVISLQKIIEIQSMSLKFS
Sequence of Histone deacetylase 2 (Q92769 whole entry): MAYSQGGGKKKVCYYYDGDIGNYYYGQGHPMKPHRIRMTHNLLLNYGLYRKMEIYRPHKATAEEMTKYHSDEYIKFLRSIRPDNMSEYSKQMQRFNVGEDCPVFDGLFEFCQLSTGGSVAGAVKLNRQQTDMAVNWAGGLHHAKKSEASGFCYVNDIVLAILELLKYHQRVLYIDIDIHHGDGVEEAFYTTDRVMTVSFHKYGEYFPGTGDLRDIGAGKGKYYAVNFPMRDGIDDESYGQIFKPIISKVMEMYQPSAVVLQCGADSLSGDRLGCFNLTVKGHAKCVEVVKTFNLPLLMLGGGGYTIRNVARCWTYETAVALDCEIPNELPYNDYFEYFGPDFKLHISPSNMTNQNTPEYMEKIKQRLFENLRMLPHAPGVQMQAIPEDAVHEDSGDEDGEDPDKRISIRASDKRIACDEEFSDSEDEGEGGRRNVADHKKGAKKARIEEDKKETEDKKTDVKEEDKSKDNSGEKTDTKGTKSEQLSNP
Sequence of Histone deacetylase 11 (Q96DB2 whole entry): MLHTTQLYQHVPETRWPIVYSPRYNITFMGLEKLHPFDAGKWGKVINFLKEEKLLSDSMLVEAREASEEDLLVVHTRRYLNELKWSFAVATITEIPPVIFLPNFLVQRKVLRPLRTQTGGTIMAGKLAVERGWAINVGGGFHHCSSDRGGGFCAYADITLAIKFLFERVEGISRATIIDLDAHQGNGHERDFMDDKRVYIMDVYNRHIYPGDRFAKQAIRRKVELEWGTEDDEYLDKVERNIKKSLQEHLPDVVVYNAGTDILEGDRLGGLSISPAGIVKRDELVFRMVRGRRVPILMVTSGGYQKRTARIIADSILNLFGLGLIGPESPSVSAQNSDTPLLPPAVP

- pIC50 [1]: 6.60
- pIC50 [3]: < 5.00
- pIC50 [5]: < 5.00
- pIC50 [6]: < 5.00
- pIC50 [7]: < 5.00
- pIC50 [8]: < 5.00
- pIC50 [9]: 6.59
- pIC50 [10]: 6.59
- pIC50 [11]: 6.80
- pIC50 [12]: < 5.00
- pIC50 [13]: < 5.00
- pIC50 [14]: 6.44
- pIC50 [15]: < 5.00
- pIC50 [16]: 6.43
- pIC50 [19]: 5.87
- pIC50 [20]: < 5.00
- pIC50 [21]: 5.94
- pIC50 [24]: 6.64
- pIC50 [28]: 6.82
- pIC50 [29]: < 5.00
- pIC50 [31]: < 5.00
Structure (SMILES): COc1cc(OC)c(/C=C/S(=O)(=O)Cc2ccc(OC)c(NCC(=O)O)c2)c(OC)c1 [RIGOSERTIB]
- Activity [2]: Active
- Activity [4]: Active
- Activity [17]: Active
- Activity [18]: Active
- Activity [22]: Active
- Activity [23]: 41.4%
- Activity [25]: Active
- inhibition in vivo at 7.5 mg/kg [26]: 46%
- inhibition in vivo at 7.5 mg/kg [27]: 77.9%
- pIC50 [30]: < 4.40
- Activity [32]: 34.8%
